Measurements taken from EP2573108A1, “Methods for identifying compounds capable of inhibiting degradation of PKM zeta” (SYGNIS Bioscience GmbH & Co KG, priority 2011, dated 2013).
Like-named read-outs stand apart in the source and are kept apart here. Where a SMILES comes first, the peptide text is derived from it. The star is where a group is joined. Cbz = O=C(OCc1ccccc1)*

Key:
KIBRA- PKM zeta complex = settings: for displacement of KIBRA from a pre-formed complex with PKM zeta: COS lysates, Fig. 4f
Procedure: (§1) Starting from aa 882, increasing 20aa stretches of KIBRA were deleted and constructs were tested for interaction with FLAG-tagged PKM zeta. […] PKM zeta-flag expression constructs were co-transfected with EGFP-fusion constructs containing the 956-975 PKM zeta binding motif. Amino acids from position 964 to 974 were mutated to Alanin. […] Increasing concentrations of the peptide were added to COS-lysates co-expressing KIBRA and FLAG- PKM zeta before pull-down with anti-FLAG beads. […] The C-terminal serine residues that can be phosphorylated by PKM zeta in vitro were mutated to alanine or glutamate. […] Neurons were infected with a KIBRA-EGFP fusion constructs.
(§2) Co-immunoprecipitation. 2d after electroporation, cells were washed twice with ice-cold 1xPBS, and lyesd (50 mM Tris/HCl pH 7.4, 150 mM NaCl, 0.5% NP40, 20 mM NaF, 2 mM EDTA, 2 mM EGTA, 2 mM orthovanadate, protease inhibitor cocktail) at 4°C. Lysate was incubated with anti-flag beads (Sigma) at 4 °C for 2h, 5µl of peptide solution was added as indicated. Protein was released by 1x SDS loading buffer (without reducing reagents) (95 °C for 5min).
(§3) In more detail, 2d after electroporation, COS cells were washed twice with ice-cold IxPBS, and protein extraction was carried out by lysis of cells with lysis-buffer (50 mM Tris/HCl pH 7.4, 150 mM NaCl, 0.5% NP40, 20 mM NaF, 2 mM EDTA, 2 mM EGTA, 2 mM orthovanadate, protease inhibitor cocktail) at 4 °C. After incubation for 20 min at 4°C, the lysate was spun down at 13500 rpm at 4 °C for 10 min. One part of the supernatant was kept for direct Western analysis (lysate).

PKM zeta [1] = settings: PKM zeta expressed in COS cells, Fig. 4e
Procedure: as §1, §2, §3

PKM zeta [2] = experiment: PKM zeta protein stability after translation block with cycloheximide (Western blot), COS cells; type: cell-based; settings: up to 48 h
Procedure: Electroporation of COS1 cells. COS1 cells were cultured in Dulbecco's modified eagle medium (DMEM) high glucose supplemented with 10% fetal calf serum (FCS). Cells were transfected with appropriate plasmids as indicated in the result section. For electroporation, COS-1 cells were harvested and resuspended in electroporation (EP)-buffer (50 mM K2HPO4, 20 mM CH3COOK, 20 mM KOH, pH 7.4) at a densitiy of 3.5x10^6 cells per transfection. After addition of 25 mM MgSO4, cells were mixed with 10 µg of plasmid-DNA (ratio of pulled down plasmid to co-expressed plasmid was 1:4; pure co-expression of two plasmids was performed in a ratio of 1:2) and transferred to an electroporation cuvette. Electroporation was performed in a Biorad Gene Pulsar II electroporator at 500 µF capacitance and 230 V, and cells were transferred into DMEM supplemented with 10% FCS and plated immediately. 48 h after transfection, cells were harvested for Co-IP. To perform western blot analysis, cells were stimulated 24 h after transfection for the indicated time points with cycloheximide and MG-132, respectively.
Western blotting. […] After syringing the lysate 5x, lysate was spun down at 13000 rpm at 4 °C for 10 min and the protein concentration of the supernate was determined (BCA-Test, Pierce). […] For quantification of scanned autoradiographs Windows ImageJ (NIH, Bethesda, MD,USA) was used.

PKM zeta [3] = experiment: PKM zeta protein stability after translation block with cycloheximide (Western blot), SHSY-5Y cells; type: cell-based
Procedure: Western blotting. […] Lysates were frozen in liquid nitrogen and stored afterwards at -20°C. After syringing the lysate 5x, lysate was spun down at 13000 rpm at 4 °C for 10 min and the protein concentration of the supernate was determined (BCA-Test, Pierce). 1/5 volume of 5x sample-buffer (with β-Mercaptoethanol) was added and samples were denatured at 95 °C for 5 min. 50 µg of protein was run on a SDS-PAGE and proteins were transferred to nitrocellulose membranes using an iBlot™ Dry Blotting System (Invitrogen, Karlsruhe, Germany). […] For quantification of scanned autoradiographs Windows ImageJ (NIH, Bethesda, MD,USA) was used.

Compound	displacement of KIBRA from a pre-formed complex with PKM zeta (KIBRA- PKM zeta complex)	displacement of KIBRA from a pre-formed complex with PKM zeta (KIBRA- PKM zeta complex; listed as aa 948-978)	IC50 (KIBRA- PKM zeta complex; increasing concentrations of peptide added to COS-lysates co-expressing KIBRA and FLAG-PKM zeta before pull-down with anti-FLAG beads, estimated) [nM]	binding to PKM zeta (PKM zeta [1]; listed as aa 948-978)	binding to PKM zeta (PKM zeta [1]; listed as synthetic biotin-labeled peptide)	PKM zeta levels after CHX (PKM zeta [2])	PKM zeta levels after CHX (PKM zeta [3])
DSSTLSKKPPFVRNSLERRSVRMKRPSSVKS [synthetic peptide 948-978]	able to disrupt a preformed KIBRA- PKM zeta complex	able to displace KIBRA from a pre-formed complex with PKM zeta in a concentration-dependent manner	~60	sufficient for binding	able to bind PKM zeta	–	–
CC(C)C[C@@H](C=O)NC(=O)[C@H](CC(C)C)NC(=O)[C@H](CC(C)C)NC(=O)OCc1ccccc1 [MG132] (Cbz-Leu-Leu-Leu-aldehyde)	–	–	–	–	–	prevented the time-dependent decrease in kinase levels	prevented the time-dependent decrease in kinase levels
